pEC50, pIC50: −log10 of the molar value. Like-named read-outs stand apart in the source and are kept apart here.
How the values were obtained:
RS4;11 (MLL-AF4) cells = experiment: Cell proliferation (alamarBlue) RS4;11; assay type: cell-based; settings: Homo sapiens, RS4-11, read-out: IC50 proliferation, RS4;11 (MLL-AF4)
Procedure: (§1) Cells were seeded in the optimal growth medium at 4000–5000 cells/well in a 96 MTP and cultured 18–24 h before inhibitor treatment.

EOL-1 (MLL-TD) cells = experiment: Cell proliferation (alamarBlue) EOL-1; assay type: cell-based; settings: Homo sapiens
Procedure: as §1

NOMO-1 (MLL-AF9) cells = experiment: Cell proliferation (alamarBlue) NOMO-1; assay type: cell-based; settings: Homo sapiens
Procedure: as §1

MV4-11 (MLL-AF4) cells = experiment: Cell proliferation (alamarBlue) MV4-11; assay type: cell-based; settings: Homo sapiens
Procedure: as §1

SEM (MLL-AF4) cells = experiment: Cell proliferation (alamarBlue) SEM; assay type: cell-based
Procedure: as §1

OCI-AML-5 (MLL-WT) cells = experiment: Cell proliferation (alamarBlue) OCI-AML-5; assay type: cell-based; settings: Homo sapiens
Procedure: as §1

HL-60 (MLL-WT) cells = experiment: Cell proliferation (alamarBlue) HL-60; assay type: cell-based; settings: for pIC50: Homo sapiens, read-out: IC50 proliferation
Procedure: as §1

Jurkat (MLL-WT) cells = experiment: Cell proliferation (alamarBlue) Jurkat; assay type: cell-based; settings: Homo sapiens
Procedure: as §1

[1] = test system: OCI-AML-2 (MLL-AF9) cells; experiment: Cell proliferation (alamarBlue) OCI-AML-2; assay type: cell-based; settings: Homo sapiens
Procedure: as §1

MENIN-MLL interaction = MENIN-MLL interaction (Homo sapiens, UniProt O00255); experiment: On target potency, MENIN-MLL interaction; assay type: biochemical
Text: Table 1 Inhibitors used in this study. Chemical structures of inhibitor used in this study tackling Menin-MLL1 interaction, BRD4/2/3, DOT1L, CDK9, and DHODH active sites, with respective biochemical IC50, rationale and current developmental status | column: BAY-155

HL-60 cells = experiment: CD11b protein expression by flow cytometry, HL-60; assay type: cell-based; settings: non-fused HL-60 cell line, 4 and 7 days of treatment
Method in brief: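 Cells seeded 24 h before inhibitor treatment lasting 4 or 7 days. Then stained with CD11b-APC plus DAPI, or AnnexinV-FITC plus PI, and analysed by flow cytometry.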

[2] = test system: MV4-11, MOLM-13 and HL-60 cells; experiment: Cell cycle analysis (PI, flow cytometry); assay type: cell-based; settings: 4 days of treatment (Figure S2)
Procedure: Cells were washed with PBS and fixed overnight at − 20 °C with 70% ethanol. Fixed cells were stained with PI solution (Sigma-Aldrich St. Louis, MO, USA) solution containing RNase A (Qiagen, Hilden, Germany). Fluorescence was measured with FACS Canto II (BD Biosciences, Heidelberg, Germany) flow cytometer and data was analyzed with FACSDiva software.

KOPN-8 (MLL-ENL) cells = experiment: Cell proliferation (alamarBlue) KOPN-8; assay type: cell-based; settings: Homo sapiens
Procedure: as §1

[3] = test system: selected MLL-fused models; experiment: Cell proliferation, AML/ALL panel; assay type: cell-based; settings: specifically in selected MLL-fused models (Fig. 2a); read-out: proliferation IC50 (significant effects)
Procedure: as §1

MOLM-13 (MLL-AF9) cells = experiment: Cell proliferation (alamarBlue) MOLM-13; assay type: cell-based; settings: Homo sapiens
Procedure: as §1

[4] = test system: MLL-fused cell lines (MV4-11, MOLM-13); experiment: CD11b protein expression by flow cytometry, MLL-fused lines; assay type: cell-based; settings: 4 and 7 days of treatment
Procedure: Four thousand cells per well were seeded 24 h before they were treated with the indicated inhibitor in a 96 MTP. After 4 or 7 days of treatment, cells were washed with PBS and stained with CD11b - APC (BioLegend, San Diego, California, USA) and DAPI (Thermo Fisher Scientific, Waltham, Massachusetts, USA) or AnnexinV – FITC (BioLegend, San Diego, California, USA) and PI solution (Sigma-Aldrich St. Louis, Missouri, USA) using the FACS Canto II (BD Biosciences, Heidelberg, Germany) and data was analyzed with FACSDiva software.

MOLM-14 (MLL-AF9) cells = experiment: Cell proliferation (alamarBlue) MOLM-14; assay type: cell-based; settings: Homo sapiens
Procedure: as §1

ML-2 (MLL-AF6) cells = experiment: Cell proliferation (alamarBlue) ML-2; assay type: cell-based
Procedure: as §1

OCI-AML-3 (MLL-WT) cells = experiment: Cell proliferation (alamarBlue) OCI-AML-3; assay type: cell-based; settings: Homo sapiens
Procedure: as §1

MENIN-MLL interaction, sequence (O00255 whole entry): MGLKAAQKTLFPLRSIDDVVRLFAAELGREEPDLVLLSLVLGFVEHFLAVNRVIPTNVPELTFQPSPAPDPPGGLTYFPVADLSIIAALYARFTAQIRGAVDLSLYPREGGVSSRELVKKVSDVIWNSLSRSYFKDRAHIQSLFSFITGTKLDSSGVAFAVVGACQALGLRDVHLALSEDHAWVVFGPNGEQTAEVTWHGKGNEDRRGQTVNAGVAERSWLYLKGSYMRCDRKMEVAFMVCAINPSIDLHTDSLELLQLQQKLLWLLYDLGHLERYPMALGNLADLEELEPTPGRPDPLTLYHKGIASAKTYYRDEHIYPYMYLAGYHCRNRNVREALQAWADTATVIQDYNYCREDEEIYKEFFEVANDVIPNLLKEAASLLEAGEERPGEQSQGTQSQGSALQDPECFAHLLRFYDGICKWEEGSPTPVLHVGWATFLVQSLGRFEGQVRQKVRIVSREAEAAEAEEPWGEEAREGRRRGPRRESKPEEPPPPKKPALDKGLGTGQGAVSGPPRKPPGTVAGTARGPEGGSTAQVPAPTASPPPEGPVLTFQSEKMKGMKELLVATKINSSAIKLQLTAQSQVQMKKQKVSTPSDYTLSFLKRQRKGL

Q: With `Cc1c(CN2CCC3(CC2)CN(c2ncnc4sc(CC(F)(F)F)cc24)C3)ccc2c1cc(C#N)n2CC(N)=O` [BAY-155] as the compound, how does the pIC50 (RS4;11 (MLL-AF4) cells; D1) read?
A: Its pIC50 is < 5.00.

Q: And the pIC50 (RS4;11 (MLL-AF4) cells; D4)?
A: Its pIC50 is < 5.00.

Q: And the pIC50 (RS4;11 (MLL-AF4) cells; D7)?
A: Its pIC50 is 5.22.

Q: And the pIC50 (EOL-1 (MLL-TD) cells; EOL1, read-out: IC50 proliferation, EOL-1 (MLL-TD), D1)?
A: The pIC50 was 5.17.

Q: And the pIC50 (EOL-1 (MLL-TD) cells; EOL1, read-out: IC50 proliferation, EOL-1 (MLL-TD), D4)?
A: The pIC50 was 5.79.

Q: What about the pIC50 (EOL-1 (MLL-TD) cells; EOL1, read-out: IC50 proliferation, EOL-1 (MLL-TD), D7) of the same compound?
A: The pIC50 was 5.94.

Q: What about the pIC50 (NOMO-1 (MLL-AF9) cells; NOMO-1, read-out: IC50 proliferation, NOMO-1 (MLL-AF9), D1) of the same compound?
A: Its pIC50 is < 5.00.

Q: What about the pIC50 (NOMO-1 (MLL-AF9) cells; NOMO-1, read-out: IC50 proliferation, NOMO-1 (MLL-AF9), D4) of the same compound?
A: Its pIC50 is 6.82.

Q: And the pIC50 (NOMO-1 (MLL-AF9) cells; NOMO-1, read-out: IC50 proliferation, NOMO-1 (MLL-AF9), D7)?
A: Its pIC50 is 7.15.

Q: And the pIC50 (MV4-11 (MLL-AF4) cells; MV4-11, read-out: IC50 proliferation, MV4-11 (MLL-AF4), D1)?
A: The pIC50 was < 5.00.

Q: And the pIC50 (MV4-11 (MLL-AF4) cells; MV4-11, read-out: IC50 proliferation, MV4-11 (MLL-AF4), D4)?
A: Its pIC50 is 7.05.

Q: What about the pIC50 (MV4-11 (MLL-AF4) cells; MV4-11, read-out: IC50 proliferation, MV4-11 (MLL-AF4), D7) of the same compound?
A: The pIC50 was 7.52.

Q: What about the pIC50 (SEM (MLL-AF4) cells; read-out: IC50 proliferation, SEM (MLL-AF4), D1) of the same compound?
A: Its pIC50 is < 5.00.

Q: And the pIC50 (SEM (MLL-AF4) cells; read-out: IC50 proliferation, SEM (MLL-AF4), D4)?
A: Its pIC50 is 6.18.

Q: And the pIC50 (SEM (MLL-AF4) cells; read-out: IC50 proliferation, SEM (MLL-AF4), D7)?
A: The pIC50 was 6.10.

Q: And the pIC50 (OCI-AML-5 (MLL-WT) cells; OCI-AML-5, read-out: IC50 proliferation, OCI-AML-5 (MLL-WT), D1)?
A: Its pIC50 is < 5.00.

Q: And the pIC50 (OCI-AML-5 (MLL-WT) cells; OCI-AML-5, read-out: IC50 proliferation, OCI-AML-5 (MLL-WT), D4)?
A: Its pIC50 is < 5.00.

Q: And the pIC50 (OCI-AML-5 (MLL-WT) cells; OCI-AML-5, read-out: IC50 proliferation, OCI-AML-5 (MLL-WT), D7)?
A: Its pIC50 is 5.07.

Q: What about the “anti-proliferation effect in non-fused HL-60” value (HL-60 (MLL-WT) cells; HL-60, 4 days of treatment (Fig. 1a)) of the same compound?
A: The value was “only affected with the 10 μM treatment”.

Q: And the pIC50 (HL-60 (MLL-WT) cells; HL-60, 24 h)?
A: The pIC50 was < 5.00.

Q: And the pIC50 (HL-60 (MLL-WT) cells; HL-60, 96 h)?
A: The pIC50 was 5.04.

Q: What about the pIC50 (HL-60 (MLL-WT) cells; HL-60, 168 h) of the same compound?
A: Its pIC50 is < 5.00.

Q: And the pIC50 (Jurkat (MLL-WT) cells; read-out: IC50 proliferation, Jurkat (MLL-WT), D1)?
A: Its pIC50 is < 5.00.

Q: What about the pIC50 (Jurkat (MLL-WT) cells; read-out: IC50 proliferation, Jurkat (MLL-WT), D4) of the same compound?
A: The pIC50 was 5.05.

Q: And the pIC50 (Jurkat (MLL-WT) cells; read-out: IC50 proliferation, Jurkat (MLL-WT), D7)?
A: Its pIC50 is 5.04.

Q: And the pIC50 ([1]; OCI-AML2, read-out: IC50 proliferation, OCI-AML-2 (MLL-AF9), D1)?
A: Its pIC50 is < 5.00.

Q: And the pIC50 ([1]; OCI-AML2, read-out: IC50 proliferation, OCI-AML-2 (MLL-AF9), D4)?
A: Its pIC50 is 5.08.

Q: What about the pIC50 ([1]; OCI-AML2, read-out: IC50 proliferation, OCI-AML-2 (MLL-AF9), D7) of the same compound?
A: The pIC50 was 5.04.

Q: What about the pEC50 (MENIN-MLL interaction) of the same compound?
A: Its pEC50 is 8.10.

Q: And the “CD11b level” value (HL-60 cells)?
A: Its value is “did not increase CD11b level”.

Q: And the “cell cycle effect” value [2]?
A: Its value is “decrease of cells in S and G2/M phase with increasing concentrations”.

Q: And the pIC50 (KOPN-8 (MLL-ENL) cells; KOPN-8, read-out: IC50 proliferation, KOPN-8 (MLL-ENL), D1)?
A: The pIC50 was < 5.00.

Q: And the pIC50 (KOPN-8 (MLL-ENL) cells; KOPN-8, read-out: IC50 proliferation, KOPN-8 (MLL-ENL), D4)?
A: Its pIC50 is 5.20.

Q: What about the pIC50 (KOPN-8 (MLL-ENL) cells; KOPN-8, read-out: IC50 proliferation, KOPN-8 (MLL-ENL), D7) of the same compound?
A: Its pIC50 is 5.72.

Q: What about the pIC50 [3] of the same compound?
A: Its pIC50 is > 6.00.

Q: And the pIC50 (MOLM-13 (MLL-AF9) cells; MOLM-13, read-out: IC50 proliferation, MOLM-13 (MLL-AF9), D1)?
A: The pIC50 was < 5.00.

Q: What about the pIC50 (MOLM-13 (MLL-AF9) cells; MOLM-13, read-out: IC50 proliferation, MOLM-13 (MLL-AF9), D4) of the same compound?
A: The pIC50 was 6.85.

Q: And the pIC50 (MOLM-13 (MLL-AF9) cells; MOLM-13, read-out: IC50 proliferation, MOLM-13 (MLL-AF9), D7)?
A: Its pIC50 is 6.55.

Q: What about the “CD11b protein level” value [4] of the same compound?
A: Its value is “increased CD11b protein level in a dose and time-dependent manner”.

Q: And the pIC50 (MOLM-14 (MLL-AF9) cells; MOLM-14, read-out: IC50 proliferation, MOLM-14 (MLL-AF9), D1)?
A: The pIC50 was 5.16.

Q: And the pIC50 (MOLM-14 (MLL-AF9) cells; MOLM-14, read-out: IC50 proliferation, MOLM-14 (MLL-AF9), D4)?
A: Its pIC50 is 6.51.

Q: And the pIC50 (MOLM-14 (MLL-AF9) cells; MOLM-14, read-out: IC50 proliferation, MOLM-14 (MLL-AF9), D7)?
A: The pIC50 was 6.64.

Q: What about the pIC50 (ML-2 (MLL-AF6) cells; read-out: IC50 proliferation, ML-2 (MLL-AF6), D1) of the same compound?
A: The pIC50 was < 5.00.

Q: What about the pIC50 (ML-2 (MLL-AF6) cells; read-out: IC50 proliferation, ML-2 (MLL-AF6), D4) of the same compound?
A: Its pIC50 is < 5.00.

Q: And the pIC50 (ML-2 (MLL-AF6) cells; read-out: IC50 proliferation, ML-2 (MLL-AF6), D7)?
A: Its pIC50 is < 5.00.

Q: And the pIC50 (OCI-AML-3 (MLL-WT) cells; OCI-AML-3, read-out: IC50 proliferation, OCI-AML-3 (MLL-WT), D1)?
A: The pIC50 was < 5.00.

Q: What about the pIC50 (OCI-AML-3 (MLL-WT) cells; OCI-AML-3, read-out: IC50 proliferation, OCI-AML-3 (MLL-WT), D4) of the same compound?
A: Its pIC50 is 5.86.

Q: And the pIC50 (OCI-AML-3 (MLL-WT) cells; OCI-AML-3, read-out: IC50 proliferation, OCI-AML-3 (MLL-WT), D7)?
A: Its pIC50 is 5.81.

Source: PMC6599250, “Functional diversity of inhibitors tackling the differentiation blockage of MLL-rearranged leukemia” (Journal of Hematology & Oncology, 2019)
